PMC11940194, “Synthesis, Antiproliferative Activity, and ADME Profiling of Novel Racemic and Optically Pure Aryl-Substituted Purines and Purine Bioisosteres” (Biomolecules, 2025)
Like-named read-outs stand apart in the source and are kept apart here.

Assays:
[1] = test system: pancreatic ductal adenocarcinoma (CFPAC-1) cells; assay: Antiproliferative MTT assay, CFPAC-1; assay type: cell-based, human; conditions: Homo sapiens, CFPAC-1, 72 h, 72 h incubation, MTT; mean ± SD
Outline: (§1)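 Growth inhibition is measured by MTT after cells are exposed for 72 h to compounds spanning 0.01 to 100 µM. IC50 is derived from dose–response curves by linear regression, with quadruplicate wells in two independent runs.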

[2] = test system: colorectal carcinoma (HT-29) cells; assay: Antiproliferative MTT assay, HT-29; assay type: cell-based, human; conditions: for IC50: Homo sapiens, HT-29, 72 h, 72 h incubation, MTT, mean ± SD
Outline: as §1

[3] = test system: MCF-7, CFPAC-1, HT-29, HepG2 tumor cell lines and HFF-1 fibroblasts; assay: Antiproliferative activity, whole cell line panel; assay type: cell-based, human; conditions: tested cell lines
Protocol: The human ATCC tumor cell lines breast adenocarcinoma (MCF7), colorectal carcinoma (HT-29), pancreatic ductal adenocarcinoma (CFPAC-1), hepatocellular carcinoma (HepG2), and normal skin fibroblasts (HFF) derived from ATCC (American Type Culture Collection) were cultured in Dulbecco’s Modified Eagle Medium (DMEM) or Minimum Essential Medium (MEM) supplemented with 10% fetal bovine serum (FBS), 2 mM L-glutamine, 100 U/mL penicillin, and 100 µg/mL streptomycin (Lonza, Basel, Switzerland) in a humidified atmosphere with 5% CO2 at 37 °C. For the experiment, carcinoma cell lines and normal human cell lines were seeded in 96-well microtiter plates at a density of 3000 cells per well and 5000 cells per well, respectively, depending on the doubling time of the specific cell line. The test substances were then added at fivefold, tenfold dilutions (0.01 to 100 µM), freshly prepared in the growth medium on the day of testing, and incubated for a further 72 h. After 72 h of incubation, the growth rate of the cells was determined using the MTT assay according to the manufacturer’s guidelines. […] The IC50 values were calculated from the dose–response curves using linear regression analysis. The experiment was performed in tetraplicates in two individual experiments.
Newly synthesized compounds were evaluated for their cytotoxic activity in vitro against four human cancer cell lines, including human breast adenocarcinoma (MCF-7), ductal pancreatic adenocarcinoma (CFPAC-1), colorectal carcinoma (HT-29), and hepatocellular carcinoma (HepG2), as well as on non-cancerous skin fibroblasts (HFF-1), to check for non-specific toxicity. Furthermore, 5-Fluorouracil (5-FU) was used as a reference drug. The results are expressed as 50% inhibitory concentration (IC50) values and are listed in Table 2, Table 3, Table 4 and Table 5.

[4] = test system: normal skin fibroblasts (HFF-1); assay: Cytotoxicity MTT assay, normal skin fibroblasts; assay type: cell-based, human; conditions: Homo sapiens, HFF-1, 72 h, 72 h incubation, mean ± SD
Outline: as §1

[5] = test system: breast adenocarcinoma (MCF7) cells; assay: Antiproliferative MTT assay, MCF-7; assay type: cell-based, human; conditions: Homo sapiens, MCF7; 72 h incubation, MTT; mean ± SD
Outline: as §1

[6] = test system: hepatocellular carcinoma (HepG2) cells; assay: Antiproliferative MTT assay, HepG2; assay type: cell-based, human; conditions: for IC50: Homo sapiens, HepG2, 72 h, 72 h incubation, MTT, mean ± SD
Outline: as §1

[7] = test system: MDCKII-MDR1 cells (P-glycoprotein); assay: MDCKII-MDR1 permeability assay; assay type: in vitro ADME, canine cells with over-expressed human MDR1 gene; conditions: permeability class
Protocol: (§2) MDCKII-hMDR1 cells were obtained from Solvo Biotechnology, Hungary. DMEM, fetal bovine serum, Glutamax-100, Antibiotic/Antimycotic, DMSO, Dulbecco’s phosphate-buffered saline, and MEM Non-essential amino acids were purchased from Sigma (St. Louis, MO, USA). Bi-directional permeability and P-glycoprotein substrate assessments were carried out in Madin-Darby canine epithelial cells with the over-expressed human MDR1 gene (MDCKII-MDR1), coding for P-glycoprotein. Experimental procedures, as well as cell culture conditions, were the same as previously described. Briefly, compounds (10 µM, 1% DMSO v/v) in duplicate were incubated at 37 °C for 60 min with cell monolayer on 24-well Millicell inserts (Millipore, Burlington, MA, USA) with and without the P-glycoprotein inhibitor Elacridar (2 µM, International Laboratory, San Francisco, CA, USA). The inhibition of P-glycoprotein was verified by amprenavir (Moravek Biochemicals Inc, Brea, CA, USA) and monolayer integrity using Lucifer yellow (Sigma, St. Louis, MO, USA). LC-MS/MS measured compound concentrations and Lucifer yellow was measured on an Infinite F500 (Tecan, Männedorf, CH, Switzerland) using excitation of 485 nm and emission of 530 nm.
(§3) All samples were quantified using tandem mass spectrometry coupled to liquid chromatography. Samples were analyzed on a Sciex API4000 Triple Quadrupole Mass Spectrometer (Sciex, Division of MDS Inc., Toronto, Canada) coupled to a Shimadzu Nexera X2 UHPLC frontend (Kyoto, Japan). Samples were injected onto a UHPLC column (HALO2 C18, 2.1 × 20 mm, 2 µm or Luna Omega 1.6 µm Polar C18 100A, 30 × 2.1 mm) and eluted with a gradient at 50 °C. The mobile phase was composed of acetonitrile/water mixture (9/1, with 0.1% formic acid) and 0.1% formic acid in deionized water. The flow rate was 0.7 mL/min under gradient conditions, leading to a total run time of 1.5–2 min. A positive ion mode with turbo spray, an ion source temperature of 550 °C, and a dwell time of 150 ms were utilized for mass spectrometric detection. Quantitation was performed using multiple reaction monitoring (MRM) at the specific transitions for each compound.

[8] = test system: P-glycoprotein (human MDR1); assay: MDCKII-MDR1 permeability assay; assay type: in vitro ADME, canine cells with over-expressed human MDR1 gene; conditions: dog, MDCK-MDR1
Protocol: as §2, §3

[9] = Hydrolytic stability in aqueous buffer (UV/Vis); assay type: physicochemical; conditions: phosphate buffer/DMSO 99:1, pH 7.4, 1 × 10⁻⁴ mol dm⁻³, UV/Vis spectra over 24 h
Source text: Solvents and chemicals, including starting purines and purine bioisosters 1–5, as well as para-substituted 2-phenyloxiranes 11–15 and phenacyl bromide 21–25, were purchased from Sigma-Aldrich (St. Louis, MO, USA), Alfa Aesar (Haverhill, MA, USA), and Fisher Scientific International (Pittsburgh, PA, USA). The progress of all reactions was monitored by thin layer chromatography on pre-coated Merck (Darmstadt, Germany) silica gel plates 60F254. The synthesized compounds were purified via column chromatography using Fluka (Buchs, Switzerland) silica gel (0.063−0.2 mm) and the appropriate solvent. All NMR spectra were recorded using a Bruker 300, 400, and 600 MHz NMR spectrometer (Bruker Biospin, Rheinstetten, Germany) in deuterated DMSO solutions, with TMS as the internal standard. The melting points of all newly synthesized compounds were determined using a Koffler (Reichert, Vienna) hot stage microscope. The ^1H (δ/ppm) and ^13C NMR (δ/ppm) spectra of compounds 26a,b–49a,b can be found in the Supporting Information (Figures S1–S48). The purity of all newly synthesized compounds was determined by elemental analysis and the elemental analysis results are within 0.5% of the theoretical values. The UV/Vis absorption spectra of compounds 40a, 45a, and 49b were measured at a concentration of 1 × 10⁻⁴ mol dm⁻³ in phosphate buffer and DMSO (99:1, v/v) at pH 7.4 using a Varian Cary 50 spectrophotometer in double-beam mode at 25 °C.
Selected 6-chloropurine (40a), 4-chloropyrrolo[2,3-d]pyrimidine (45a), and 4-chloroimidazo[4,5-c]pyridine (49b) with significant antiproliferative activity were examined for hydrolytic stability in an aqueous buffer solution.
2. UV/Vis absorption spectra of selected compounds
Figure S49. UV/Vis absorption spectra of compounds 40a (a), 45a (b), and 49b (c) recorded in phosphate buffer with 1% DMSO (99:1, v/v) at pH 7.4 (c = 1 × 10⁻⁴ mol dm⁻³). Spectra were measured immediately after sample preparation and after 24 hours to evaluate spectral stability over time.
(1 picture or pasted object on this page, not shown here)

[10] = test system: normal skin fibroblasts (HFF-1); set-up: method as in PMID 29271659; conditions: toxicity to normal cells; read-out: IC50 normal cells of analog without linker; cited from earlier work

IC50 [1] [µM]	IC50 [2] [µM]	IC50 [5] [µM]	IC50 [6] [µM]	Permeability [7]	Papp A→B at 60 min, 10 µM ([8]; 10 µM, 60 min, 37 °C) [×10⁻⁶ cm/s]	Papp B→A at 60 min, 10 µM ([8]; 10 µM, 60 min, 37 °C) [×10⁻⁶ cm/s]	efflux ratio at 60 min, 10 µM ([8]; <2 no efflux, >2 active efflux)	hydrolytic stability [9]	Structure (SMILES)	antiproliferative activity (in words) [3]	IC50 [4] [µM]	SI (HT-29) ([2]; SI = [IC50 HFF]/[IC50 HT-29])	SI (HepG2) ([6]; SI = [IC50 HFF]/[IC50 HepG2])	IC50 [10] [nM]
> 100	> 100	> 100	> 100	–	–	–	–	–	OCC(c1ccccc1)n1cc(Cn2ccc3ccccc32)nn1 (stereo not drawn) [Compound 26a, 1-((1-(2-Hydroxy-1-phenylethyl)-1H-1,2,3-triazol-4-yl)methyl)-1H-indole]	deprived of any activity	> 100	–	–	–
–	0.69 ± 0.01	19 ± 4.3	–	MODERATE	2.1	60.6	29.5	hydrolytically stable	OCC(c1ccc(C(F)(F)F)cc1)n1cc(Cn2cnc3c(Cl)ncnc32)nn1 (stereo not drawn) [Compound 40a, 6-Chloro-9-((1-(2-hydroxy-1-(4-(trifluoromethyl)phenyl)ethyl)-1H-1,2,3-triazol-4-yl)methyl)-9H-purine]	submicromolar antiproliferative activity	18 ± 0.6	26.1	28.1	–
> 100	> 100	91 ± 7.2	> 100	–	–	–	–	–	OC(Cn1cc(Cn2cnc3ccccc32)nn1)c1ccccc1 (stereo not drawn) [Compound 31b, 1-((1-(2-Hydroxy-2-phenylethyl)-1H-1,2,3-triazol-4-yl)methyl)-1H-benzimidazole]	deprived of any activity	> 100	–	–	–
> 100	> 100	> 100	> 100	–	–	–	–	–	OC(Cn1cc(Cn2ccc3ccccc32)nn1)c1ccccc1 (stereo not drawn) [Compound 26b, 1-((1-(2-Hydroxy-2-phenylethyl)-1H-1,2,3-triazol-4-yl)methyl)-1H-indole]	deprived of any activity	> 100	–	–	–
> 100	> 100	> 100	> 100	–	–	–	–	–	OCC(c1ccccc1)n1cc(Cn2cnc3ccccc32)nn1 (stereo not drawn) [Compound 31a, 1-((1-(2-Hydroxy-1-phenylethyl)-1H-1,2,3-triazol-4-yl)methyl)-1H-benzimidazole]	deprived of any activity	> 100	–	–	–
> 100	> 100	> 100	> 100	–	–	–	–	–	OC(Cn1cc(Cn2cnc3c(Cl)nccc32)nn1)c1ccccc1 (stereo not drawn) [Compound 46b, 4-Chloro-1-((1-(2-hydroxy-2-phenylethyl)-1H-1,2,3-triazol-4-yl)methyl)-1H-imidazo[4,5-c]pyridine]	deprived of any activity	> 100	–	–	–
–	–	–	–	–	–	–	–	–	FC(F)(F)c1ccc(-n2cc(Cn3cnc4c(Cl)ncnc43)nn2)cc1	–	–	–	–	750
